According to patent US10576147B2, “Muramyl peptide derivative compound, synthesis and uses thereof” (BHARAT BIOTECH INTERNATIONAL LIMITED, priority 2015, dated 2020):
In brackets after ≈: the same amount, converted by molar mass.

Assays:
BALB/c mice [1] = assay: HBsAg specific total IgG endpoint titer (ELISA); assay type: in vivo
Description: Female BALB/c mice (6-8 week old, n=6/group) were vaccinated intramuscularly (i.m, at two quadriceps) on Day 0 & Day 28 with vehicle control or Hepatitis B antigen (20 μg/mouse/dose/100 μl, 50 μl per quadricep) with and without MDP-MN (10 μg or 50 or 100 μg/mouse/dose/100 μl) diluted in Phosphate buffered saline. Prior to immunization, Hepatitis B surface antigen was mixed with MDP-MN, by gentle agitation (1:1 ratio), under sterile conditions. Mice were bled and euthanized on Day 42. Blood was collected & serum was isolated to evaluate analyze antigen specific total IgG antibody titer (as in example 3.1.2) and antibody subclasses (isotypes namely IgG1 or IgG2a or IgG3, as in example 3.1.3).
Serial dilutions of individual serum samples ([…] ranging from 1:50 to 819200) were used to determine the endpoint titer of antigen specific total IgG antibody titer by ELISA. Details of assay protocol as described below.
For analysis of antigen specific antibody titer, hepatitis B surface antigen was suspended in 50 mM carbonate bicarbonate buffer, pH 9.6 and coated at a concentration (1 μg/ml, 100 μl/well) in 96 well plates and kept at 4° C. for overnight. Next day, plates were washed with washing buffer (PBST-Phosphate buffered saline, pH 7.4 with 0.05% Tween) and blocked with blocking buffer (PBS with 1% BSA) at RT for 1-2 hr. ELISA plates were washed again with wash buffer (PBS, 0.05% Tween™20) and added serially diluted (in PBS, 0.1% BSA, 0.05% Tween™20, 0.02% sodium azide) sera from hyper immunized mice and incubated at RT for 1 hr. After incubation, wells were again washed and added Goat Anti-mouse IgG HRP conjugate antibody at a dilution of 1:5000 & incubated for 1 hr at RT. Later, wells were washed, and developed with OPD (O-phenylene diamine) as a substrate for 15 min. Reaction was stopped using 2N H2SO4. Absorbance was read at 490 nm. Threshold (Mean+3SD) was established by taking the absorbance of negative control (PBS) group, followed by the reactive index (ratio of absorbance at a particular dilution & threshold), so as to determine end point titer. […]

splenocytes = assay: Splenocyte proliferation (MTT); assay type: cell-based, mice; conditions: mouse splenocytes, LPS and Con-A, 48 h
Description: Spleens were isolated from mice and were processed to single cell suspension. 96 well flat bottom Micro titer plates were seeded with 1×10^5 cells/well with RPMI1640 media. Cells were treated with compounds, OVA, Con A (2 μg/mL) and LPS (10 μg/mL) or medium giving a final volume of […]. Plates were incubated at 37° C. with 5% CO2 in an incubator. After 48 h of incubation […] of Triazolyl blue Tetrazolium Bromide (MTT) solution was added to each well, incubated for next 4 h. Untransformed MTT was removed from each well by aspirating the supernatant ([…]) and replaced with DMSO. The absorbance was read at 570 nm after 15 min.
Immunostimulating substances act through specific (antigen-dependent) T lymphocytes, B lymphocytes, and dendritic cells and also through non-specific mechanisms of action (antigen-independent) that involves granulocytes, macrophages, and NK cells. Being a secondary lymphoid organ, spleen contains a heterogeneous population of lymphocytes to examine the immunostimulant activity. However, proliferations of immune cells like T and B cells are the benchmark for immune potentiation. Cells were treated with or without OVA or in combination with MDP and MDP-MN. Type of immune response in all treated groups was measured with LPS and Con-A splenocyte proliferation assays depicted in FIG. 3. […] This is essential for B cell expansion.

J774.2A cells = assay: Cytotoxicity assay (MTT); assay type: cell-based; conditions: 24 hrs, read-out: IC50 (50% cell death or toxicity)
Description: Details of an assay are as explained in example 2.2.
J774.2A cells (2×10^4/well) were plated and incubated overnight. Next day, cells were treated with various concentrations of MDP-MN (10 fold dilutions with a concentration ranging from 0.005 mg/ml to 0.5 mg/ml & 2 mg/ml) and cultured for 24 hrs. Supernatant was discarded and cells were treated with 100 μl of MTT [3-(4,5-Dimethylthiazol-2-yl)-2,5-Diphenyltetrazolium Bromide] (5 mg/ml) and incubated for 3-4 hrs until formozan crystals were formed. Later, supernatant was discarded and crystals were dissolved with DMSO for 5-10 min. Absorbance was read at 540 nm. FIG. 2 represents cell toxicity effect of MDP-MN. X-axis represents concentration in log scale and Y-axis represents % toxicity.

BALB/c mice [2] = assay: TH1:TH2 index from HBsAg specific IgG isotypes; assay type: in vivo
From the text: It is known that, IgG subclasses produced after the immunization against given antigen, primarily determines the function of the antibody or indirectly measures the relative contribution of TH1 versus TH2 type cytokine induction. More specifically, production of IgG1 antibodies induces TH2 type cytokines, whereas, production of IgG2a & IgG3 antibodies induces TH1 type cytokines. […] In this context, in the present invention, we determined the levels of IgG isotypes (IgG1, IgG2a & IgG3), raised against HBsAg in the presence or absence of MDP-MN (at 10 & 50 μg/mouse) and calculated TH1: TH2 index then calculated as ([IgG2a+IgG3]/2)/(IgG1). Details of assay protocol as described below as in example 3.1.3. According to such calculation, an index value <1 stands for a TH2 polarization; an index value >1 stands for a TH1 polarization.
Analysis of antigen specific IgG antibody subclasses (isotypes namely IgG1 or IgG2a or IgG3) was performed as mentioned in example 3.1.2, except at one step, where goat anti-mouse IgG1 or IgG2a or IgG3 HRP was used at a dilution of 1:5000 (in place of goat anti-mouse IgG) TH1:TH2 index obtained at 10 & 50 μg/mouse of MDP-MN is as shown in FIG. 5c.

C[C@H](NC(=O)[C@@H](C)O[C@H]1[C@H](O)[C@@H](CO)OC(O)[C@@H]1NC(=O)[C@H](O)CO)C(=O)N[C@H](CCC(=O)O)C(N)=O (stereo partly drawn) [MDP-MN, (4R)-5-amino-4-((2S)-2-((2R)-2-(((3R,4R,5S,6R)-3-((2,3-dihydroxypropanamido))-2,5-dihydroxy-6-(hydroxymethyl)tetrahydro-2H-pyran-4-yl)oxy)propanamido)propanamido)-5-oxopentanoic acid]
increase of antibody titer vs HBsAg alone (BALB/c mice [1]; MDP-MN 50 μg/mouse): 4 fold | increase of antibody titer vs HBsAg alone (BALB/c mice [1]; MDP-MN 100 μg/mouse): 8 fold | increase of humoral response (TH2) (BALB/c mice [1]; mice vaccinated with Hepatitis B surface antigen in presence of MDP-MN, dose dependent): 4-8 fold | splenocyte proliferation (splenocytes): inducing the LPS mediated splenocyte proliferation | IC50 (J774.2A cells): 99.2 µg/mL (≈ 184 µM) | TH1:TH2 index ([IgG2a+IgG3]/2)/(IgG1) (BALB/c mice [2]; HBsAg in the presence of MDP-MN (10 & 50 μg/mouse)): 2.5 | TH1 type cytokines induction (BALB/c mice [2]; mice vaccinated with Hepatitis B surface antigen in presence of MDP-MN): induced TH1 type cytokines
